Source: the NIST ThermoML archive (doi:10.1016/j.jct.2006.10.016)

Assay: xn = mol fraction of the nth substance listed
Settings: 101 kPa, Liquid

CO [methanol] + C[S+](C)[O-]
x2 = 0
Settings	mass density [kg/m3]	viscosity [mPa·s]
303.15 K	781.3	0.5178
308.15 K	778.2	0.4843
313.15 K	772.4	0.4515
318.15 K	767.8	0.4233
323.15 K	762.7	0.395

C[S+](C)[O-] [dimethyl sulfoxide] + CCO
Settings	mass density, 303.15 K [kg/m3]	mass density, 308.15 K [kg/m3]	mass density, 313.15 K [kg/m3]	mass density, 318.15 K [kg/m3]	mass density, 323.15 K [kg/m3]	viscosity, 303.15 K [mPa·s]	viscosity, 308.15 K [mPa·s]	viscosity, 313.15 K [mPa·s]	viscosity, 318.15 K [mPa·s]	viscosity, 323.15 K [mPa·s]
x1 = 0.1008	836	831.6	827.6	822.8	818.1	1.244	1.122	1.025	0.9261	0.8551
x1 = 0.2004	870.1	865.6	861.7	856.7	852.1	1.205	1.096	0.9964	0.9126	0.8356
x1 = 0.2994	902.4	897.7	894	888.8	884	1.209	1.098	1.01	0.9262	0.8544
x1 = 0.4005	933.9	929	925.6	920.1	915.3	1.237	1.143	1.038	0.961	0.8876
x1 = 0.4995	963.3	958.2	955	949.2	944.4	1.282	1.179	1.086	1.004	0.9264
x1 = 0.6005	991.6	986.3	983.4	977.4	972.4	1.361	1.248	1.154	1.065	0.9847
x1 = 0.7012	1018.4	1013	1010.3	1004.1	999.3	1.464	1.34	1.234	1.139	1.05
x1 = 0.8011	1043.6	1038.3	1035.9	1029.5	1024.7	1.557	1.435	1.323	1.217	1.125
x1 = 0.8999	1067.5	1062.1	1059.8	1053.1	1048.4	1.658	1.517	1.393	1.289	1.183
x1 = 1	1090.7	1084.7	1082.3	1075.1	1070	1.832	1.67	1.537	1.408	1.289

CCCO [propan-1-ol] + C[S+](C)[O-]
x2 = 0
Settings	mass density [kg/m3]	viscosity [mPa·s]
303.15 K	795.5	1.733
308.15 K	791.1	1.534
313.15 K	787	1.367
318.15 K	783.3	1.234
323.15 K	779.5	1.1

CCO [ethanol] + C[S+](C)[O-]
x2 = 0
Settings	mass density [kg/m3]	viscosity [mPa·s]
303.15 K	783.4	1.086
308.15 K	779	0.9732
313.15 K	774.6	0.8596
318.15 K	769.8	0.8284
323.15 K	766.1	0.7493

CC(C)O [propan-2-ol] + C[S+](C)[O-]
x2 = 0
Settings	mass density [kg/m3]	viscosity [mPa·s]
303.15 K	776.4	1.792
308.15 K	772.6	1.553
313.15 K	768.6	1.355
318.15 K	763.9	1.182
323.15 K	758.8	1.041

C[S+](C)[O-] [dimethyl sulfoxide] + CC(C)O
Settings	mass density, 303.15 K [kg/m3]	mass density, 308.15 K [kg/m3]	mass density, 313.15 K [kg/m3]	mass density, 318.15 K [kg/m3]	mass density, 323.15 K [kg/m3]	viscosity, 303.15 K [mPa·s]	viscosity, 308.15 K [mPa·s]	viscosity, 313.15 K [mPa·s]	viscosity, 318.15 K [mPa·s]	viscosity, 323.15 K [mPa·s]
x1 = 0.1001	806.4	802.2	798.2	793.2	787.9	1.525	1.352	1.2	1.078	0.9656
x1 = 0.2011	834.9	830.4	826	820.7	815.3	1.391	1.246	1.118	1.01	0.9102
x1 = 0.3005	865	860.4	856.3	850.6	845.2	1.306	1.18	1.078	0.9836	0.8887
x1 = 0.4007	895.8	891	887.1	881.3	875.8	1.335	1.209	1.103	1.011	0.9133
x1 = 0.4994	926.6	921.6	917.9	911.9	906.5	1.341	1.223	1.124	1.036	0.9383
x1 = 0.601	958.9	953.7	950	943.8	938.5	1.396	1.274	1.173	1.08	0.9843
x1 = 0.701	991.1	985.6	982.2	975.7	970.4	1.474	1.343	1.233	1.136	1.041
x1 = 0.7994	1023.3	1017.6	1014.5	1007.6	1002.3	1.55	1.41	1.31	1.198	1.108
x1 = 0.9005	1056.9	1051	1048.2	1041	1035.8	1.671	1.516	1.401	1.285	1.171
x1 = 1	1090.7	1084.7	1082.3	1075.1	1070	1.832	1.67	1.537	1.408	1.289
